Measured values as given in article PMC9898036, “VIP152 is a selective CDK9 inhibitor with pre-clinical in vitro and in vivo efficacy in chronic lymphocytic leukemia” (Leukemia, 2022).

Tests used:
LIMK2 = LIMK2 (Homo sapiens, UniProt P53671); assay: KINOMEscan: LIMK2; assay type: binding; conditions: 1000 nM, read-out: Percent Control
RET = RET (Homo sapiens, UniProt P07949); assay: KINOMEscan: RET; assay type: binding; conditions: 100 nM, read-out: Percent Control
JNK3 = JNK3 (Homo sapiens, UniProt P53779); assay: KINOMEscan: JNK3; assay type: binding; conditions: 1000 nM, read-out: Percent Control
EPHA5 = EPHA5 (Homo sapiens, UniProt P54756); assay: KINOMEscan: EPHA5; assay type: binding; conditions: 1000 nM, read-out: Percent Control
CSNK1A1L = CSNK1A1L (Homo sapiens, UniProt Q8N752); assay: KINOMEscan: CSNK1A1L; assay type: binding; conditions: 1000 nM, read-out: Percent Control
YSK4 = YSK4 (Homo sapiens, UniProt Q56UN5); assay: KINOMEscan: YSK4; assay type: binding; conditions: 100 nM, read-out: Percent Control
[1] = molecular target: RPS6KA4(Kin.Dom.1-N-terminal) (Homo sapiens, UniProt O75676); assay: KINOMEscan: RPS6KA4(Kin.Dom.1-N-terminal); assay type: binding; conditions: 100 nM, read-out: Percent Control
Transporter, GABA = Transporter, GABA (Rattus norvegicus, UniProt P23978); assay: Eurofins Diversity Panel; assay type: binding; conditions: Conc. 10 μM
TAOK3 = TAOK3 (Homo sapiens, UniProt Q9H2K8); assay: KINOMEscan: TAOK3; assay type: binding; conditions: 100 nM, read-out: Percent Control
CAMKK2 = CAMKK2 (Homo sapiens, UniProt Q96RR4); assay: KINOMEscan: CAMKK2; assay type: binding; conditions: 1000 nM, read-out: Percent Control
MEK3 = MEK3 (Homo sapiens, UniProt P46734); assay: KINOMEscan: MEK3; assay type: binding; conditions: 1000 nM, read-out: Percent Control
LOK = LOK (Homo sapiens, UniProt O94804); assay: KINOMEscan: LOK; assay type: binding; conditions: 1000 nM, read-out: Percent Control
ADCK4 = ADCK4 (Homo sapiens, UniProt Q96D53); assay: KINOMEscan: ADCK4; assay type: binding; conditions: 1000 nM, read-out: Percent Control
ALK = ALK (Homo sapiens, UniProt Q9UM73); assay: KINOMEscan: ALK; assay type: binding; conditions: 1000 nM, read-out: Percent Control
[2] = test system: B-cells isolated from patients with treatment-naïve CLL; assay: Limiting-cell RNA sequencing (lcRNAseq); assay type: cell-based, human
Experimental: CLL cells isolated from patients were sorted for CD5^+/CD19^+ into lysis buffer. Libraries were prepared and sequenced as previously described.
P-TEFb’s role in regulating transcription through POLII CTD phosphorylation is a canonical function of this complex. To interrogate the transcriptional changes associated with VIP152 treatment, we treated B-cells, isolated from four patients with treatment-naïve CLL, with 1 µM VIP152 or DMSO for two hours followed by fluorescence-assisted cell sorting for 500 live (Sytox^−), CD45^+/CD5^+/CD19^+ cells (Fig. 3A). Our group has previously defined an analysis pipeline, named CLEAR, which identifies evenly distributed reads for differentially expressed gene (DEG) analysis. […] When we looked at the expression of these differentially abundant genes via an unsupervised clustered heatmap, we noted that there was high concordance between the patient samples with clustering dependent on treatment group (Fig. 3C). The treatment did induce decreased transcript abundance of genes previously reported to be controlled by CDK9 activity, namely JUNB, BTG1, and MCL1 [45, 46]. Downregulation of the anti-apoptotic MCL1 (LFC: −1.231056 & p-value = 0.02) likely contributes to the susceptibility of primary CLL cells to apoptosis (Fig. 2F, G). […] It has been established that AU-rich element (ARE) mRNA molecules are under tight temporal regulation and control a variety of cellular processes. Moreover, the relationship between P-TEFb mediated transcription and ARE-bearing mRNA has previously been described. […] We appreciate from our limiting-cell RNA sequencing experiments that the loss of tristetrapolin (ZFP36) transcripts (LFC: −4.02; adjusted p-value: 7.97*10^−40) and the upregulation of ribosomal transcripts, likely correspond to a possible compensatory mechanism by which these cells attempt to improve translational output and maximize transcript maintenance in response to VIP152-induced transcriptional shutdown. […] We looked at transcripts which had been shown by photoactivatable ribonucleoside cross-linking and immunoprecipitation (PAR-CLIP) to interact with ZFP36 [50]. […] Additionally, we chose to look at BCL2 transcript stability as ZFP36L1 has been shown in B cell lymphoma to negatively regulate BCL2 transcript stability. We performed an mRNA stability study on patient samples treated with VIP152 with Actinomycin-D and observed an increase in the half-lives of each of these transcripts including BCL2 (Fig. 3H–M).

FLT3(K663Q) = FLT3(K663Q) (Homo sapiens, UniProt P36888, K663Q); assay: KINOMEscan: FLT3(K663Q); assay type: binding; conditions: 1000 nM, read-out: Percent Control
RET(M918T) = RET(M918T) (Homo sapiens, UniProt P07949, M918T); assay: KINOMEscan: RET(M918T); assay type: binding; conditions: 100 nM, read-out: Percent Control
CHEK1 = CHEK1 (Homo sapiens, UniProt O14757); assay: KINOMEscan: CHEK1; assay type: binding; conditions: 1000 nM, read-out: Percent Control
ASK2 = ASK2 (Homo sapiens, UniProt O95382); assay: KINOMEscan: ASK2; assay type: binding; conditions: 1000 nM, read-out: Percent Control
YES = YES (Homo sapiens, UniProt P07947); assay: KINOMEscan: YES; assay type: binding; conditions: 100 nM, read-out: Percent Control
ZAP70 = ZAP70 (Homo sapiens, UniProt P43403); assay: KINOMEscan: ZAP70; assay type: binding; conditions: 100 nM, read-out: Percent Control
RIPK4 = RIPK4 (Homo sapiens, UniProt P57078); assay: KINOMEscan: RIPK4; assay type: binding; conditions: 100 nM, read-out: Percent Control
MET = MET (Homo sapiens, UniProt P08581); assay: KINOMEscan: MET; assay type: binding; conditions: 1000 nM, read-out: Percent Control
DCAMKL2 = DCAMKL2 (Homo sapiens, UniProt Q8N568); assay: KINOMEscan: DCAMKL2; assay type: binding; conditions: 1000 nM, read-out: Percent Control
MELK = MELK (Homo sapiens, UniProt Q14680); assay: KINOMEscan: MELK; assay type: binding; conditions: 1000 nM, read-out: Percent Control
CLK1 = CLK1 (Homo sapiens, UniProt P49759); assay: KINOMEscan: CLK1; assay type: binding; conditions: 1000 nM, read-out: Percent Control
[3] = molecular target: Epidermal Growth Factor (EGF) (Homo sapiens, UniProt P00533); assay: Eurofins Diversity Panel; assay type: binding; conditions: hum, Conc. 10 μM

Chain of CSNK1A1L (Q8N752 whole entry): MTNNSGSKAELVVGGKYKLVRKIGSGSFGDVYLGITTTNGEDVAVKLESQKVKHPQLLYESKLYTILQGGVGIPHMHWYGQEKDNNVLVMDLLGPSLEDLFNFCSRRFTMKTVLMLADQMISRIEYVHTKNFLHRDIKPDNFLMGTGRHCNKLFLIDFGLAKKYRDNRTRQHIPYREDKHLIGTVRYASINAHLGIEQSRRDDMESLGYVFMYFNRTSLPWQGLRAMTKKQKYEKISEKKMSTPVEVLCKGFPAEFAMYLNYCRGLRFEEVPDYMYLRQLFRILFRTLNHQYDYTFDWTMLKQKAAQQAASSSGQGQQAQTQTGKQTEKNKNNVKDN
Chain of MET (P08581 25-1390): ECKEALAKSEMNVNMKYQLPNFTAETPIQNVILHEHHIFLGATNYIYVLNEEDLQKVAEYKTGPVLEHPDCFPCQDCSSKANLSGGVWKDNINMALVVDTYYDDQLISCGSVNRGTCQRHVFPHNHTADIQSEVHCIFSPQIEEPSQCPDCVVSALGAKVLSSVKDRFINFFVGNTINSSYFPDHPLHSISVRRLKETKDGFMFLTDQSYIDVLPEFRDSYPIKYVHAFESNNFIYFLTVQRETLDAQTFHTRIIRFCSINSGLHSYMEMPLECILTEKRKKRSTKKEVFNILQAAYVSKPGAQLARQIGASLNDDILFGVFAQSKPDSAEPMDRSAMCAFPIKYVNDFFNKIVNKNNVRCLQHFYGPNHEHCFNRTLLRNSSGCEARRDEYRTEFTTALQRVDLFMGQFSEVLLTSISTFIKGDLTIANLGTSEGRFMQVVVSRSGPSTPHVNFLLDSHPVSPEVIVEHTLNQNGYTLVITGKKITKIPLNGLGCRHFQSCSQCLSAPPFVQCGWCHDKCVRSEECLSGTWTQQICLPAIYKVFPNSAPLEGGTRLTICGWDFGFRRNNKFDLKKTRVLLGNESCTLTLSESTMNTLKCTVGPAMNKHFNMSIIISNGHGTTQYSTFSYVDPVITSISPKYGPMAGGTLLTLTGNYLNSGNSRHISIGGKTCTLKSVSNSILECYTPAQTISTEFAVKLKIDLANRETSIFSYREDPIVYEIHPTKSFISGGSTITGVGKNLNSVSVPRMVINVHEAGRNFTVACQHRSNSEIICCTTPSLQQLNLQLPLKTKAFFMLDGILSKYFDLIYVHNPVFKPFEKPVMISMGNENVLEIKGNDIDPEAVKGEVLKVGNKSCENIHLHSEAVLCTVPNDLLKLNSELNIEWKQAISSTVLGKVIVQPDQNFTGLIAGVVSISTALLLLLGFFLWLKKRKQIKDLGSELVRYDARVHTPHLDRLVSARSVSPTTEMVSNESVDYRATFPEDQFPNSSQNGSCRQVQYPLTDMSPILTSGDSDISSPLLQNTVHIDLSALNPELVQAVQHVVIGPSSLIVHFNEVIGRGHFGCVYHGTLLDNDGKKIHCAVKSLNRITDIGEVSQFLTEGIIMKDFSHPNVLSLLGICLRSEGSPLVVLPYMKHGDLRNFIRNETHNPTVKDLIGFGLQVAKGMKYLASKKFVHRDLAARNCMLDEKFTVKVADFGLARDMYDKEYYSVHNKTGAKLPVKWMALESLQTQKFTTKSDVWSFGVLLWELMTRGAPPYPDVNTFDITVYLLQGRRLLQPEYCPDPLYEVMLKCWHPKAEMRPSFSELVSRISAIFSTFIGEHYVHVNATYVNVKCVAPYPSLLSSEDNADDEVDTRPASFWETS
Chain of CHEK1 (O14757 whole entry): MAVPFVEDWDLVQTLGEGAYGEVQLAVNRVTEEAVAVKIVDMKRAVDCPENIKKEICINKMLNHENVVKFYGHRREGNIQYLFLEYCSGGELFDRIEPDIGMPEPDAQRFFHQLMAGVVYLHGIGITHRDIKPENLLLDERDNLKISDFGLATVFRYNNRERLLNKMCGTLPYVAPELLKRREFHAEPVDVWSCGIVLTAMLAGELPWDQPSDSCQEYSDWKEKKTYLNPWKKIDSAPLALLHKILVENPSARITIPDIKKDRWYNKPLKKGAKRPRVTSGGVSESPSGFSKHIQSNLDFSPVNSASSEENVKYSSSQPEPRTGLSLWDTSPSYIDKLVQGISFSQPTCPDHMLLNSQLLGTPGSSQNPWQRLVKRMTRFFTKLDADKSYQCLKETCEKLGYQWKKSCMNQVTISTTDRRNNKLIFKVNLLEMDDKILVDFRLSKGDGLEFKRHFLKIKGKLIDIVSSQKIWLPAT
Chain of YSK4 (Q56UN5 whole entry): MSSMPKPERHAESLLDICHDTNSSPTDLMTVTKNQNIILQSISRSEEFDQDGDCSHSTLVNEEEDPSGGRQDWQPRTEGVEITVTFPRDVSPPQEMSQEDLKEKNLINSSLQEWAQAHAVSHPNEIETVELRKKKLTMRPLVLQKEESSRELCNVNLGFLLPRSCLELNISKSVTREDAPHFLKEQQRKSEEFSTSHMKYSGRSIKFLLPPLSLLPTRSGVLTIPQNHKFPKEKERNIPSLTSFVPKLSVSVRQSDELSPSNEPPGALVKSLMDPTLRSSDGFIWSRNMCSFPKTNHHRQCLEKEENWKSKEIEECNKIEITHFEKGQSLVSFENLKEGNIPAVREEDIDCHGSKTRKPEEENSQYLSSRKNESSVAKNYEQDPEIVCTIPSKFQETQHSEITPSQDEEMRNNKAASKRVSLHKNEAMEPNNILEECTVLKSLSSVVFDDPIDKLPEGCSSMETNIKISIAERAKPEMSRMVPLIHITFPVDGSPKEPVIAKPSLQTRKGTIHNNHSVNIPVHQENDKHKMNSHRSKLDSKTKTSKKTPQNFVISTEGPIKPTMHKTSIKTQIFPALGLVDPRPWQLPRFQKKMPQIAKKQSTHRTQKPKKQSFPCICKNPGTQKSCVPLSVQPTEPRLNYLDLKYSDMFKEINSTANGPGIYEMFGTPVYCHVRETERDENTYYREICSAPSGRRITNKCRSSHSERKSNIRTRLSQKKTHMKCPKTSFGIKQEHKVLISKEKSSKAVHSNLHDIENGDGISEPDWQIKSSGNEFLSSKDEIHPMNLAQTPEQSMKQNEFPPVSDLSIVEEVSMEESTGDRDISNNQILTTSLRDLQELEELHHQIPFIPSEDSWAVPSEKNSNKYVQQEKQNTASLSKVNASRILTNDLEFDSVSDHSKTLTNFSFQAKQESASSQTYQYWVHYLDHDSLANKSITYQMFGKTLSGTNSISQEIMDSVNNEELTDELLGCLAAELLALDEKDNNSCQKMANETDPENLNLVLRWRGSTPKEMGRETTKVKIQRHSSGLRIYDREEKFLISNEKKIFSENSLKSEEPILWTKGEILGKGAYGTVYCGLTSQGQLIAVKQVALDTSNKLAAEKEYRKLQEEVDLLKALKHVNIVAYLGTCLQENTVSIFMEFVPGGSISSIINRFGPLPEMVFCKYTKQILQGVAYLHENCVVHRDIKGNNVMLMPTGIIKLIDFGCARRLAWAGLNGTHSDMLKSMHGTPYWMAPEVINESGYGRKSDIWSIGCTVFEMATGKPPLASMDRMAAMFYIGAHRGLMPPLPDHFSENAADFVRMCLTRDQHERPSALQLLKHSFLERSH
Chain of YES (P07947 whole entry): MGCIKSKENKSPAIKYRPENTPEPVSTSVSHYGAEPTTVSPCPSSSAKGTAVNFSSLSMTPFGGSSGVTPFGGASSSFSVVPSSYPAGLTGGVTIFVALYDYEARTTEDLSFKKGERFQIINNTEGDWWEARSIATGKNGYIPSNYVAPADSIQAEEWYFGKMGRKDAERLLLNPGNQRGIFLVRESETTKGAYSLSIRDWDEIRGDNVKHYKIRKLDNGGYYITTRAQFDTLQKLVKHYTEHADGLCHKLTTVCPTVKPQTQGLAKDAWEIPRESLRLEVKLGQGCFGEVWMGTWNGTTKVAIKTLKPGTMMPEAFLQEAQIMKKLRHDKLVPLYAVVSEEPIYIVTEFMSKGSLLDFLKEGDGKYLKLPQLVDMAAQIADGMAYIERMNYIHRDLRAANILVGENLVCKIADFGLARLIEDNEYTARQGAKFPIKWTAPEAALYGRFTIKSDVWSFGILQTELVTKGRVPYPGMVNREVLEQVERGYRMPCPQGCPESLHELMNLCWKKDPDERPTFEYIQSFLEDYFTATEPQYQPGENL
Chain of RPS6KA4(Kin.Dom.1-N-terminal) (O75676 1-371 limits assumed): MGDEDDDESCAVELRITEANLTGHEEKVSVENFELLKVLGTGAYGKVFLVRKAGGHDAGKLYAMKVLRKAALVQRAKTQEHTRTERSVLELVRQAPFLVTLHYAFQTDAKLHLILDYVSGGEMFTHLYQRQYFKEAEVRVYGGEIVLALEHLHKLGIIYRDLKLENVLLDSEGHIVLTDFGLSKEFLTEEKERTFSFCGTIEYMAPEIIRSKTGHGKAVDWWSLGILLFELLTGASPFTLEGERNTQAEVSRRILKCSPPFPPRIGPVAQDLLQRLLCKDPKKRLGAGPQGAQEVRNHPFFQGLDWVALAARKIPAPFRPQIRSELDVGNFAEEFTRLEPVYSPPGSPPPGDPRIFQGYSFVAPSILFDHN

Work on `COc1cc(F)ccc1-c1cc(Nc2cc(CS(C)(=N)=O)ccn2)ncc1F` (stereo not drawn) [VIP152] yielded a remaining binding at 1 µM (LIMK2) of 91%, a remaining binding at 0.1 µM (RET) of 100% and a remaining binding at 1 µM (JNK3) of 82%. For the same molecule, the remaining binding at 1 µM (EPHA5) was 88%, the remaining binding at 1 µM (CSNK1A1L) was 92% and the remaining binding at 0.1 µM (YSK4) was 100%. The remaining binding at 0.1 µM [1] was 100%, the inhibition at 10 µM (Transporter, GABA) was -20% and the remaining binding at 0.1 µM (TAOK3) was 88%. The remaining binding at 1 µM (CAMKK2) was 16%, the remaining binding at 1 µM (MEK3) was 84% and the remaining binding at 1 µM (LOK) was 53%. For the same molecule, the remaining binding at 1 µM (ADCK4) was 82%, the remaining binding at 1 µM (ALK) was 92% and the “MCL1 transcript LFC” value ([2]; 1 µM, two hours vs DMSO) was −1.231. The “ZFP36 transcript LFC” value ([2]; 1 µM, two hours vs DMSO) was −4.02, the “log2FoldChange A1BG” value ([2]; VIP152 2hr vs DMSO 2hr) was 0.4323 and the “log2FoldChange A1BG-AS1” value ([2]; VIP152 2hr vs DMSO 2hr) was 0.777. For the same molecule, the “log2FoldChange AAAS” value ([2]; VIP152 2hr vs DMSO 2hr) was 0.1502, the “log2FoldChange AAGAB” value ([2]; VIP152 2hr vs DMSO 2hr) was 0.6327 and the “log2FoldChange AAMDC” value ([2]; VIP152 2hr vs DMSO 2hr) was 0.4489. The remaining binding at 1 µM (FLT3(K663Q)) was 80%, the remaining binding at 0.1 µM (RET(M918T)) was 100% and the remaining binding at 1 µM (CHEK1) was 100%. For the same molecule, the remaining binding at 1 µM (ASK2) was 91%, the remaining binding at 0.1 µM (YES) was 100% and the remaining binding at 0.1 µM (ZAP70) was 99%. It also gave a remaining binding at 0.1 µM (RIPK4) of 100%, a remaining binding at 1 µM (MET) of 26% and a remaining binding at 1 µM (DCAMKL2) of 96%. For the same molecule, the remaining binding at 1 µM (MELK) was 96%, the remaining binding at 1 µM (CLK1) was 71% and the inhibition at 10 µM [3] was -15%.
